# Measured values as given in patent US20090124635A1, “CHEMICAL COMPOUNDS” (priority 2005, published 2009).
# System: HIV-1 fusion
# Experiment: gp160 induced cell-cell fusion assay (HeLa P4 / CHO-Tat10 cell lines)
# Format: cell-based
# Settings: Human immunodeficiency virus 1, HeLaP4, read-out: IC50 against HIV-1 fusion
# Experimental: The gp160 induced cell-cell fusion assay uses a HeLa P4 cell line and a CHO-Tat10 cell line.
# The HeLa P4 cell line expresses CCR5 and CD4 and has been transfected with HIV-1 LTR-β-Galactosidase. The media for this cell line is Dulbecco modified eagle's medium (D-MEM) (without L-glutamine) containing 10% foetal calf serum (FCS), 2 mM L-glutamine penicillin/streptomycin (Pen/Strep; 100 U/mL penicillin+[…] streptomycin), and 1 μg/ml puromycin.
# The CHO cell line is a Tat (transcriptional trans activator)-expressing clone from a CHO JRR17.1 cell line that has been transfected with pTat puro plasmid. The media for this cell line is rich medium for mammalian cell culture originally developed at Roswell Park Memorial Institute RPMI1640 (without L-glutamine) containing 10% FCS, 2 mM L-glutamine, 0.5 mg/ml Hygromycin B and 12 μg/ml puromycin. The CHO JRR17.1 line expresses gp160 (JRFL) and is a clone that has been selected for its ability to fuse with a CCR5/CD4 expressing cell line.
# Upon cell fusion, Tat present in the CHO cell is able to transactivate the HIV-1 long terminal repeat (LTR) present in the HeLa cell leading to the expression of the β-Galactosidase enzyme. This expression is then measured using a Fluor Ace™ β-Galactosidase reporter assay kit (Bio-Rad cat no. 170-3150). This kit is a quantitative fluorescent assay that determines the level of expression of β-galactosidase using 4-methylumbelliferul-galactopyranoside (MUG) as substrate. β-Galactosidase hydrolyses the fluorogenic substrate resulting in release of the fluorescent molecule 4-methylumbelliferone (4MU). Fluorescence of 4-methylumbelliferone is then measured on a fluorometer using an excitation wavelength of 360 nm and emission wavelength of 460 nm.
# Compounds that inhibit fusion will give rise to a reduced signal and, following solubilisation in an appropriate solvent and dilution in culture medium, a dose-response curve for each compound can be used to calculate IC50 values.
row,Compound,IC50 [nM]
1,"Cc1ccnc(C)c1C(=O)N1CCC(C)(N2CCC(N(Cc3ccccc3)C(=O)C3CC(F)(F)C3)CC2)CC1 [Example 1, N-benzyl-N-{1′-[(2,4-dimethylpyridin-3-yl)carbonyl]-4′-methyl-1,4′-bipiperidinyl-4-yl}-3,3-difluorocyclobutanecarboxamide]",0.013
2,"Cc1ncnc(C)c1C(=O)N1C[C@H]2CC[C@@H](C1)[C@H]2N1CCC(N(Cc2ccccc2)C(=O)C2CC2)CC1 [Example 10, N-benzyl-N-(1-{(8-syn)-3-[(4,6-dimethylpyrimidin-5-yl)carbonyl]-3-azabicyclo}piperidin-4-yl)cyclopropanecarboxamide]",516
3,"Cc1ncnc(C)c1C(=O)N1CCC(C)(N2CCC(N(Cc3ccccc3F)C(=O)C3CC(F)(F)C3)CC2)CC1 [Example 25, N-{1′-[(4,6-dimethylpyrimidin-5-yl)carbonyl]-4′-methyl-1,4′-bipiperidin-4-yl}-3,3-difluoro-N-(2-fluorobenzyl)cyclobutanecarboxamide]",5.5
4,"Cc1ncnc(C)c1C(=O)N1CCC(C)(N2CCC(N(Cc3ccccc3)S(C)(=O)=O)CC2)CC1 [Example 29, N-benzyl-N-{1′-[(4,6-dimethylpyrimidin-5-yl)carbonyl]-4′-methyl-1,4′-bipiperidin-4-yl}methanesulfonamide]",346
5,"Cc1ccnc(C)c1C(=O)N1CCC(C)(N2CCC(N(Cc3cccc(F)c3)C(=O)C3CC3)CC2)CC1 [Example 47, N-{1′-[(2,4-dimethylpyridin-3-yl)carbonyl]-4′-methyl-1,4′-bipiperidin-4-yl}-N-(3-fluorobenzyl)cyclopropanecarboxamide.2HCl]",0.343
